Paper PMC9814779, “A triple farnesoid X receptor and peroxisome proliferator-activated receptor α/δ activator reverses hepatic fibrosis in diet-induced NASH in mice” (Communications Chemistry, 2020)

Key:
Type in all cases: cell-based
HEK293T and U2OS cells = test: Multiplex high-content live-cell toxicity assay; details: seven concentrations between 100 nM and 100 µM; 2, 12 and 24 h
Protocol: Before proof-of-concept in vivo evaluation, we profiled stability and cytotoxicity of the triple modulator 41 in vitro. […] To determine cytotoxicity, we employed a multiplex high-content life-cell imaging screen[24] on HEK293T and U2OS cells. For this, the cells were treated with fluorescent probes to detect Annexin V as apoptosis marker (Annexin V Alexa488), dead cells (Yo-Pro3), and DNA/nucleus (Hoechst33342). Cells were then incubated with 41, OCA, or elafibranor at seven concentrations between 100 nM and 100 µM, and cell health was determined by fluorescence imaging after 2, 12, and 24 h (Fig. 6g–i and Supplementary Fig. 5).
Supplementary Methods for in Vitro Characterization
Cytotoxicity was assessed in a high content screen on two different cell lines, HEK293T (ATCC® CRL-1573™) and U2OS (ATCC®HTB-96™), essentially as described previously6. In brief, cells were cultured in DMEM plus L-Glutamine (high glucose) supplemented with 10 % FBS (Gibco) and Penicillin/Streptomycin (Gibco). […]
After 2 h, 12 h and 24 h, cellular shape and fluorescence was analyzed on an automated, high-content confocal microscope (CQ1, Yokogawa). […]
50 ms, 40%; bright field, 300ms, 100% transmission, one centered field per well, 7 z stacks per well with 55 µm spacing. Images were analyzed with the Pathfinder software (Yokogawa). Cells were detected and gated as previously described6. […]
The solubilized test compound (5 μL, final concentration 10 μM in phosphate buffer (0.1 M, pH 7.4)) was preincubated at 37 °C in 432 μL of phosphate buffer (0.1 M, pH 7.4) together with a 50 μL NADPH regenerating system (30 mM glucose-6-phosphate, 4 U/mL glucose-6-phosphate dehydrogenase, 10 mM NADP, 30 mM MgCl2). […] The supernatants were analyzed and test compound was quantified by HPLC: mobile phase: MeOH 83%/H2O 17%/formic acid 0.1%; flow-rate: 1 mL/min; stationary phase: MultoHigh Phenyl phase, 5 μm, 250×4, precolumn, phenyl, 5 μm, 20×4; detection wavelength: 330 and 254 nm; injection volume: 50 μL. […]

[1] = molecular target: T1, human PPARδ ligand-binding domain (Gal4 chimera) (Homo sapiens, UniProt Q03181); test: Gal4 hybrid reporter gene assay, PPARδ; parameters: Emax: dose or concentration left out as unconfirmed
T1 construct: coding for the hinge region and LBD of the canonical isoform of the respective nuclear receptor; expressed in transfected cells; host or cells: HEK293T
T1 sequence (Q03181 211-439 limits assumed): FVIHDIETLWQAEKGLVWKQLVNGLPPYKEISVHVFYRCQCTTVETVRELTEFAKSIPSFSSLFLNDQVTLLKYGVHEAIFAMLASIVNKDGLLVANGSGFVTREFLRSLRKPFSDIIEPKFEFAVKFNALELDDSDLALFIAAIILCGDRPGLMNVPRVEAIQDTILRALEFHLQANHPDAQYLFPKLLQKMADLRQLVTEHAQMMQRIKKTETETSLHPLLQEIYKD

[2] = molecular target: T2, human FXR:retinoid X receptor (RXR) heterodimer (Homo sapiens, UniProt Q96RI1); test: Full-length FXR reporter gene assay (BSEP response element) in HeLa cells; parameters: Emax: dose or concentration left out as unconfirmed
T2 construct: pcDNA3-hFXR[32] and pSG5-hRXR[33] served for receptor overexpression in the full-length FXR assay; expressed in transfected cells; host or cells: HeLa
T2 sequence (P19793 whole entry): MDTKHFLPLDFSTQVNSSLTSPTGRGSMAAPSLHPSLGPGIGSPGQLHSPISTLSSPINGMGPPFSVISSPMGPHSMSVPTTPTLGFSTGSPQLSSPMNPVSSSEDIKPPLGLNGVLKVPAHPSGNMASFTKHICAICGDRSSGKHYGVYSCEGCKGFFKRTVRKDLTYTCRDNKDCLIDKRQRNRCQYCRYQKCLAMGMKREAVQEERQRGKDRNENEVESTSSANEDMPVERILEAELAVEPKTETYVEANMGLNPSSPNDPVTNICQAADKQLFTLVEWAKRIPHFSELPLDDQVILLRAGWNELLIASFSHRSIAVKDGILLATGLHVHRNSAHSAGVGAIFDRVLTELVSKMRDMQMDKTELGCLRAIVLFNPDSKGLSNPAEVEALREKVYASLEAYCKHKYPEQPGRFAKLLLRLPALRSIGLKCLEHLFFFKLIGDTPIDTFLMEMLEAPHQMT
T2 sequence (Q96RI1 whole entry): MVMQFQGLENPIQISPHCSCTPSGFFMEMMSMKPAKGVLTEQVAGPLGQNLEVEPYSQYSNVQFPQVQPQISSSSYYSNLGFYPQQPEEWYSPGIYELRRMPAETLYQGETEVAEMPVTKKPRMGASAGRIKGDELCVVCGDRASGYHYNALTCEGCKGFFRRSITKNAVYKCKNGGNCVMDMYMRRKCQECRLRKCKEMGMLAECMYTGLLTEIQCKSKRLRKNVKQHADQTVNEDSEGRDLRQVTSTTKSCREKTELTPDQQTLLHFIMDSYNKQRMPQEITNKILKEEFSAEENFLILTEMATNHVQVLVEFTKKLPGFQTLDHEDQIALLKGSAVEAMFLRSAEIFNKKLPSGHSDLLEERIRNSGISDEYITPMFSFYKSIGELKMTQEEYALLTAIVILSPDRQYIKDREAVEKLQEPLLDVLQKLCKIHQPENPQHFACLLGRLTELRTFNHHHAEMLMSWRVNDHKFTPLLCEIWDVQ

| Compound | cytotoxicity (cell health, apoptosis, necrosis, lysis) (HEK293T and U2OS cells) | EC50 ([1]; EC50 [μM] PPARδ, HEK293T, mean ± SEM, n = 3) | EC50 ([1]; PPARδ EC50, as stated in text) | Emax ([1]; read-out: max. rel. act. PPARδ) | Emax ([2]; HeLa, read-out: max. rel. act. FXR) | EC50 ([2]; HeLa, mean ± SEM, n = 3, read-out: EC50 [μM] FXR) | FXR activation efficacy compared to OCA ([2]; reporter gene assay and mRNA expression levels) |
| --- | --- | --- | --- | --- | --- | --- | --- |
| CC[C@H]1[C@@H](O)[C@@H]2[C@H](CC[C@]3(C)[C@@H]([C@H](C)CCC(=O)O)CC[C@@H]23)[C@@]2(C)CC[C@@H](O)C[C@@H]12 [OCA, 6α-ethylchenodeoxycholic acid, reference compound] | non-toxic up to 100 µM concentration over 24 h | – | – | – | – | – | – |
| CC(C)(C)c1ccc(C(=O)Nc2cccc(CCC(=O)O)c2)c(NC(=O)c2ccc(-c3ccco3)cc2)c1 [compound 41, 3-(3-[4-{tert-Butyl}-2-{4-(2-furyl)}benzamido]phenyl)propanoic acid] | no notable toxic effects up to high 100 µM concentration | 0.14 ± 0.01 µM | 0.141 µM | 34% | 19% | 0.015 ± 0.002 µM | approximately 1/5 |
